# According to PubChem BioAssay AID180 (DTP/NCI, 2004):
# Several values for one entry are separate records, joined by “and”; a condition that tells them apart may be missing. Equal entries are not always repeated.
# Tested on: BDF1 mice, Adenocarcinoma 755 s.c., tumor weight T/C
# Test: NCI In Vivo Anticancer Drug Screen. Data for tumor model Adenocarcinoma 755 (subcutaneous) in B6D2F1 (BDF1) mice
# Settings: endpoint: mean tumor weight, higher = larger tumour
# Outline: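 Tumor-bearing mice receive test compound while controls get vehicle alone. Antitumor effect is scored from survival or tumor dimensions as a T/C quotient.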
# [1] = dose: 37.5 mg/kg/injection, schedule: Q01DX011 (ip), vehicle: carboxymethylcellulose (CMC)
# [2] = dose: 75.0 mg/kg/injection, schedule: Q01DX011 (ip), vehicle: carboxymethylcellulose (CMC)
smiles,measurement,setting,value
O=C(Nc1ccc(NC(=O)Nc2cccc(C3=NCCN3)c2)cc1)Nc1cccc(C2=NCCN2)c1,T/C,"dose: 18.75 mg/kg/injection, schedule: Q01DX011 (ip), vehicle: carboxymethylcellulose (CMC)",85 % of control
same,T/C,[1],73 % of control
same,T/C,[2],73 % of control
same,T/C,"dose: 150.0 mg/kg/injection, schedule: Q01DX011 (ip), vehicle: carboxymethylcellulose (CMC)",112 % of control
COC1CC(OS(C)(=O)=O)C(COS(C)(=O)=O)O1 (stereo not drawn),T/C,"dose: 25.0 mg/kg/injection, schedule: Q01DX011 (ip), vehicle: saline",120 % of control
same,T/C,"dose: 75.0 mg/kg/injection, schedule: Q01DX011 (ip), vehicle: saline",117 % of control
same,T/C,"dose: 225.0 mg/kg/injection, schedule: Q01DX011 (ip), vehicle: saline",104 % of control
O=C(CCl)Nc1ncnc2nc[nH]c12,T/C,"dose: 20.0 mg/kg/injection, schedule: Q01DX011 (ip), vehicle: methylcellulose (MC)",84 % of control
Cn1c(=O)c2[nH]c(N/N=C/c3ccc(Br)cc3)nc2n(C)c1=O,T/C,"dose: 30.0 mg/kg/injection, schedule: Q01DX011 (ip), vehicle: carboxymethylcellulose (CMC)",109 % of control
same,T/C,"dose: 60.0 mg/kg/injection, schedule: Q01DX011 (ip), vehicle: carboxymethylcellulose (CMC)",106 % of control
same,T/C,"dose: 120.0 mg/kg/injection, schedule: Q01DX011 (ip), vehicle: carboxymethylcellulose (CMC)",92 % of control and 116 % of control
same,T/C,"dose: 240.0 mg/kg/injection, schedule: Q01DX011 (ip), vehicle: carboxymethylcellulose (CMC)",104 % of control and 88 % of control
same,T/C,"dose: 480.0 mg/kg/injection, schedule: Q01DX011 (ip), vehicle: carboxymethylcellulose (CMC)",97 % of control
COC(=O)c1[nH]c(=O)[nH]c(=O)c1F,T/C,"dose: 3.0 mg/kg/injection, schedule: Q01DX011 (ip), vehicle: methylcellulose (MC)",72 % of control
same,T/C,"dose: 6.0 mg/kg/injection, schedule: Q01DX011 (ip), vehicle: methylcellulose (MC)",63 % of control
same,T/C,"dose: 12.0 mg/kg/injection, schedule: Q01DX011 (ip), vehicle: methylcellulose (MC)",91 % of control
CSc1ncc(Br)c(Nc2ccc(Br)cc2)n1,T/C,"dose: 15.0 mg/kg/injection, schedule: Q01DX011 (ip), vehicle: methylcellulose (MC)",94 % of control
same,T/C,"dose: 31.0 mg/kg/injection, schedule: Q01DX011 (ip), vehicle: methylcellulose (MC)",103 % of control
same,T/C,"dose: 62.0 mg/kg/injection, schedule: Q01DX011 (ip), vehicle: methylcellulose (MC)",123 % of control
same,T/C,"dose: 125.0 mg/kg/injection, schedule: Q01DX011 (ip), vehicle: methylcellulose (MC)",114 % of control
same,T/C,"dose: 250.0 mg/kg/injection, schedule: Q01DX011 (ip), vehicle: methylcellulose (MC)",86 % of control
CC/C(=C(/CC)c1ccc(O)cc1)c1ccc(O)cc1,T/C,"dose: 40.0 mg/kg/injection, schedule: Q01DX011 (sc), vehicle: steriod suspending solution",114 % of control
same,T/C,"dose: 41.2 mg/kg/injection, schedule: Q01DX011 (sc), vehicle: steriod suspending solution",53 % of control
same,T/C,"dose: 62.5 mg/kg/injection, schedule: Q01DX011 (sc), vehicle: steriod suspending solution",41 % of control
same,T/C,"dose: 68.66 mg/kg/injection, schedule: Q01DX011 (sc), vehicle: steriod suspending solution",45 % of control
same,T/C,"dose: 80.0 mg/kg/injection, schedule: Q01DX011 (sc), vehicle: steriod suspending solution",178 % of control
same,T/C,"dose: 103.0 mg/kg/injection, schedule: Q01DX011 (sc), vehicle: steriod suspending solution",38 % of control and 44 % of control and 50 % of control
same,T/C,"dose: 125.0 mg/kg/injection, schedule: Q01DX011 (sc), vehicle: steriod suspending solution",33 % of control
same,T/C,"dose: 160.0 mg/kg/injection, schedule: Q01DX011 (sc), vehicle: steriod suspending solution",111 % of control
same,T/C,"dose: 250.0 mg/kg/injection, schedule: Q01DX011 (sc), vehicle: steriod suspending solution",48 % of control
same,T/C,"dose: 320.0 mg/kg/injection, schedule: Q01DX011 (sc), vehicle: steriod suspending solution",98 % of control
CCCCCCCCCCCCCCCCC(C(=O)O)C(O)(CC(=O)O)C(=O)O (stereo not drawn),T/C,"dose: 19.0 mg/kg/injection, schedule: Q01DX011 (ip), vehicle: carboxymethylcellulose (CMC)",96 % of control
same,T/C,[1],49 % of control
same,T/C,[2],59 % of control
c1ccc(N2CCSCC2)cc1,T/C,"dose: 40.5 mg/kg/injection, schedule: Q01DX011 (ip), vehicle: methylcellulose (MC)",16 % of control and 28 % of control
C[C@H](CCC(=O)O)[C@H]1CC[C@H]2[C@@H]3[C@H](O)C[C@@H]4C[C@H](O)CC[C@]4(C)[C@H]3C[C@H](O)[C@]12C (tested in a mixture with another compound),T/C,"dose: 80.0 mg/kg/injection, schedule: Q01DX011 (ip), vehicle: methylcellulose (MC)",31 % of control and 53 % of control
same,T/C,"dose: 160.0 mg/kg/injection, schedule: Q01DX011 (ip), vehicle: methylcellulose (MC)",76 % of control
same,T/C,"dose: 320.0 mg/kg/injection, schedule: Q01DX011 (ip), vehicle: methylcellulose (MC)",36 % of control
